Experiments:
Assay type in all cases: cell-based
PCSK9 mRNA = assay: RT-Q-PCR analysis of PCSK9 mRNA in HepG2 cells; details: Homo sapiens, 24 h, normalized to GAPDH, read-out: HepG2 Q-PCR PCSK9 mRNA level decrease (10 μM)
Protocol: HepG2 cells (ATCC, Cat.: HB-8065) were maintained in Growth medium-Eagle's Minimum Essential Medium (Corning, 10-010-CVR), 10% FBS (Gibco, 10099-141), Penicillin (100 units/mL), Streptomycin ([…]). HepG2 cells were incubated at 37° C., 5% CO2.
Cells were cultured in growth medium as described above and treated with the vehicle, Berberine or test compound for 24 h. The RNA was extracted using the Total RNA mini Kit (Tiangen, Beijing, China) according to the manufacturer's instructions. Reverse transcription was carried out using the High-Capacity cDNA reverse transcription kit (Thermo Fisher Scientific). Quantitative real-time PCR was performed using a reaction mixture containing cDNA, specific primers [PCSK9, 5′-[…]-3′ (forward) and 5′-[…]-3′ (reverse); GAPDH, 5′-[…]-3′ (forward) and 5′-[…]-3′ (reverse)] and Maxima SYBR Green/ROX qPCR Master Mix (Thermo Fisher Scientific). PCR amplification was carried out in a Real-Time PCR System. The real-time PCR conditions were 37° C. 10 min; 95° C. 10 min; 95° C. 15 s, 60° C. 30 s, 72° C. 30 s, 40 cycle. The amount of % RNA was normalized to the GAPDH level in the same samples.

HepG2 cells [1] = assay: Measurement of Dil-LDL uptake in HepG2 cells; details: Homo sapiens, 24 h, 10 μM for 20 h, then 20 μg/mL Dil-LDL 4 h, read-out: LDL uptake 10 μM (fold of vehicle)
Protocol: HepG2 cells were maintained in MEM supplemented with 10% FBS. The cells were seeded in 96 well black plates at a density of 1×10^4 cells per well and grown to 70-80% confluence. Afterwards, cells were changed to serum-free Opti-MEM for 1 h and followed by incubation with 10 μM Berberine or compounds of the present disclosure for 20 h. Then, 20 μg/mL Dil-LDL was added and incubated at 37° C. in the dark for additional 4 h. Cells were extensively washed three times with PBS, and LDL uptake was determined on a fluorescence plate reader at an excitation wavelength of 520 nm and emission wavelength of 580 nm.

PCSK9 = PCSK9 ELISA on HepG2 culture medium; details: HepG2 cells, 24 hr
Protocol: (§1) HepG2 cells (ATCC, Cat.: HB-8065) were maintained in Growth medium-Eagle's Minimum Essential Medium (Corning, 10-010-CVR), 10% FBS (Gibco, 10099-141), Penicillin (100 units/mL), Streptomycin ([…]). HepG2 cells were incubated at 37° C., 5% CO2. HepG2 cells were plated in flat bottom 96-well plates (Corning, 3599) at 40,000 cells/well in 100 μL of growth media. After an overnight incubation, the culture media were changed to serum-free OptiMEM media (Gibco, 31985-062), 90 μL/well. Vehicle, PF-06446846 hydrochloride, berberine, or test compound was added to the culture media, 10 μL/well. After 24 hr medium was harvested, and 10 μL of the medium were used for the PCSK9 ELISA (R&D Systems, SPC900).

HepG2 cells [2] = assay: Cell viability assay (HepG2 Survival assay, CellTiter-Glo); details: 24 hr, cellular ATP levels
Protocol: as §1, with “black clear” for “flat”, “3063)” for “3599)”, “cellular ATP levels” for “medium was harvested, and 10 μL of the medium”, “measured using CellTiter-Glo® 2.0 Assay (Promega, G9242).” for “used for the PCSK9 ELISA (R&D Systems, SPC900).”

SMILES	inhibition at 10 µM (PCSK9 mRNA) [%]	fold induction at 10 µM (HepG2 cells [1])	HepG2 PCSK9 ELISA (10 μM) % inhibition (PCSK9) [%]	HepG2 Survival assay (10 μM) (HepG2 cells [2]) [%]
COc1ccc2cc3[n+](cc2c1OC)CCc1cc2c(cc1-3)OCO2 [Berberine, reference compound]	35	2.54	52	–
CN(C(=O)CN(CC(=O)Nc1ccc(Oc2ccc(F)cc2)cc1)C(=O)c1cc2cccc(F)c2[nH]1)C1Cc2ccccc2C1 [Compound 201-29]	88.5	3.07	61	100
CN(C(=O)CN(CC(=O)Nc1ccc(Oc2ccccc2)cc1)C(=O)c1cc2cccc(F)c2[nH]1)C1Cc2ccccc2C1 [Compound 201-31]	73	2.07	48	100
CN(C(=O)CN(CC(=O)Nc1ccc(Oc2ccc(F)cc2)cc1)C(=O)c1cc2cccc(F)c2[nH]1)C1CCCC1 [Compound 201-65]	87	1.84	85	100
CN(C(=O)CN(CC(=O)Nc1ccc(Oc2ccccc2)cc1)C(=O)c1cc2cccc(F)c2[nH]1)C1CCCC1 [Compound 201-70]	85	1.69	76	100
CN(Cc1ccccc1F)C(=O)CN(CC(=O)Nc1ccc(Oc2ccccc2)cc1)C(=O)c1cc2cccc(F)c2[nH]1 [Compound 201-74]	88	3.92	77	96
CN(C(=O)CN(CC(=O)Nc1ccc(Oc2ccc(F)c(F)c2)cc1)C(=O)c1cc2cccc(F)c2[nH]1)C1CCCC1 [Compound 201-75]	90	2.92	80	100
CN(C(=O)CN(CC(=O)Nc1ccc(Oc2ccc(F)c(F)c2)cc1)C(=O)c1cc2cccc(F)c2[nH]1)C1Cc2ccccc2C1 [Compound 201-80]	88	3.07	80	100
CN(C(=O)CN(CC(=O)Nc1ccc(Oc2ccc(F)cc2)cc1)C(=O)c1ccc(C(F)(F)F)o1)C1Cc2ccccc2C1 [Compound 201-104]	86	4.15	83	100
CN(Cc1ccccc1F)C(=O)CN(CC(=O)Nc1ccc(Oc2ccccc2)cc1)C(=O)c1ccc(C(F)(F)F)o1 [Compound 201-109]	90	4.69	92	100
CN(C(=O)CN(CC(=O)Nc1ccc(Oc2ccccc2)cc1)C(=O)c1ccc(C(F)(F)F)o1)C1Cc2ccccc2C1 [Compound 201-110]	88	4.76	84	100
CN(Cc1ccccc1F)C(=O)CN(CC(=O)Nc1ccc(Oc2ccc(F)c(F)c2)cc1)C(=O)c1ccc(C(F)(F)F)o1 [Compound 201-115]	90	4.07	90	100
CN(C(=O)CN(CC(=O)Nc1ccc(Oc2ccc(F)c(F)c2)cc1)C(=O)c1ccc(C(F)(F)F)o1)C1Cc2ccccc2C1 [Compound 201-116]	88	3.76	81	100
CN(C(=O)CN(CC(=O)Nc1ccc(Oc2ccc(F)c(F)c2)cc1)C(=O)c1ccco1)C1Cc2ccccc2C1 [Compound 201-134]	92	5.3	90	100
O=C(CN(CC(=O)Nc1ccc(Oc2ccc(C(F)(F)F)cc2)cc1)C(=O)c1cc2cccc(F)c2[nH]1)NCc1ccccc1 [Compound 201-205]	92	1.1	85	90
CC(C)c1ccc(Oc2ccc(NC(=O)CN(CC(=O)NC3CCCC3)C(=O)c3cc4cccc(F)c4[nH]3)cc2)cc1 [Compound 201-227]	56	1.37	71	112
CC(C)c1ccc(Oc2ccc(NC(=O)CN(CC(=O)NC3CCCC3)C(=O)c3ccc(C(F)(F)F)[nH]3)cc2)cc1 [Compound 201-235]	72	–	73	101
N#Cc1cccc2cc(C(=O)N(CC(=O)Nc3ccc(Oc4ccc(C(F)(F)F)cc4)cc3)CC(=O)NC3CCCC3)[nH]c12 [Compound 201-237]	77	–	72	98
CC(C)c1ccc(Oc2ccc(NC(=O)CN(CC(=O)NCc3ccccc3)C(=O)c3cc4cccc(F)c4[nH]3)cc2)cc1 [Compound 201-242]	77	2.43	74	115
CC(C)c1ccc(Oc2ccc(NC(=O)CN(CC(=O)NCc3ccccc3)C(=O)c3ccc(C(F)(F)F)o3)cc2)cc1 [Compound 201-245]	–	1.11	76	101
O=C(CN(CC(=O)Nc1ccc(Oc2ccc(C(F)(F)F)cc2)cc1)C(=O)c1cc2cccc(F)c2[nH]1)Nc1ccccc1 [Compound 201-255]	72	–	87	101
O=C(CN(CC(=O)Nc1ccc(Oc2ccc(F)c(F)c2)cc1)C(=O)c1cc2cccc(F)c2[nH]1)Nc1ccccc1 [Compound 201-274]	88	–	77	98

Reference: US20230122967A1, “NOVEL COMPOUNDS AS INHIBITORS OF PCSK9” (SHENGKE PHARMACEUTICALS (JIANGSU) LTD., priority 2020, published 2023)
